The target in experiment [1] is LdtMab1, wild-type (MAB_3165c, orthologue of LdtMt1) (Mycobacteroides abscessus, UniProt B1MDC1). Nature of the experiment: biochemical. It is filed as binding, Mycobacterium abscessus. The conditions noted are these: Figure 6; ITC, wt, protein 150 μM, ligand 2 mM, pH 8.0, 24° C.
Experiment [2] addresses T1, LdtMt2, wild-type (L,D-transpeptidase of M. tuberculosis; fragment without N-terminal transmembrane domain, N-terminal His6, TEV-cleavable) (Mycobacterium tuberculosis, UniProt I6Y9J2).
T1 construct: Fragments excluding the putative transmembrane domain were cloned, expressed and purified; His6 (TEV-cleavable) (N); made in house; host or cells: E. coli BL21(DE3)
The experiment can be described thus: biochemical. It is filed as binding.

In experiment [3] the target is T2, LdtMab1 (Mycobacteroides abscessus, UniProt B1MDC1). The experiment can be described thus: UPLC-MS analysis of protein-drug adducts, LdtMab1. It is filed as binding, M. abscessus.
For experiment [4], the system named is LdtMab2. The experiment can be described thus: UPLC-MS analysis of protein-drug adducts, LdtMab2. It is filed as binding, M. abscessus. The conditions noted are these: for reaction and covalent adduct formation: evolved carbapenem alone.
The next experiment deals with LdtCl. The experiment can be described thus: UPLC-MS analysis of protein-drug adducts, LdtCl. Format: binding, E. cloacae. To be noted: for reaction and covalent adduct formation: evolved carbapenem alone. The procedure: Ultra-performance liquid chromatography-high resolution mass spectrometry (UPLC-MS) with a Waters Acquity H-Class system utilizing a Waters Acquity BEH-300 UPLC column packed with a C4 stationary phase (2.1×50 mm, 1.7 μm) in conjunction with HRMS analysis by a Waters Xero-G2 quadropole-TOF electrospray mass spectrometer was used to detect and analyze protein-drug adducts. Each enzyme (2 μM) in 25 mM Tris buffer, pH 8, was incubated in the absence or presence of drugs (50 μM) at room temperature for 5 hours. Trifluoroacetic acid (0.1% final) was used to quench the reactions, samples were filtered through a 0.22 um filter and analyzed using UPLC-MS as follows: Mobile phase: 0-1 min 90% water+10% ACN+0.1% formic acid, 1-7.5 min gradient up to 20% water+80% ACN+0.1% formic acid, 7.5-8.4 min 20% water+80% ACN+0.1% formic acid, 8.4-8.5 min gradient up to 90% water+10% ACN+0.1% formic acid, 8.5-10 min 90% water+10% ACN+0.1% formic acid. Flow rate=0.3 mL min^−1. T=60° C.

In another experiment the test system is LdtKp. Nature of the experiment: UPLC-MS analysis of protein-drug adducts, LdtKp. Format: binding, K. pneumoniae.
In another experiment the test system is LdtPa. Nature of the experiment: UPLC-MS analysis of protein-drug adducts, LdtPa. Format: binding, P. aeruginosa.
Experiment [5] addresses LdtMab2 (Mycobacteroides abscessus, UniProt B1MMQ4). Nature of the experiment: Isothermal titration calorimetry, binding to LdtMab2. Set-up: species or system M. abscessus. The conditions noted are these: ITC, 24° C., tris pH 8.0.
In experiment [6] the target is T3, LdtMt2 (Mycobacterium tuberculosis, UniProt I6Y9J2). It is filed as binding, M. tuberculosis. To be noted: for Kd: 24° C., tris pH 8.0.
Experiment [7] concerns the target T3, LdtMt2. The experiment can be described thus: biochemical. Also noted: species or system M. tuberculosis.
The test system of experiment [8] is M. tuberculosis, M. abscessus, A. baumannii, K. pneumoniae, E. cloacae, P. aeruginosa, E. faecalis and S. aureus. The experiment can be described thus: Minimum inhibitory concentration (MIC90), broth dilution, panel of pathogens. The conditions noted are these: panel of tested pathogens. It is filed as cell-based.
Experiment [9] concerns the target T4, LdtMt1 (Mycobacterium tuberculosis, UniProt O53638). Nature of the experiment: biochemical. Format: binding, M. tuberculosis.
Experiment [10] concerns the target T3, LdtMt2. It is filed as binding, M. tuberculosis.
Experiment [11] concerns the target T4, LdtMt1. It is filed as binding, M. tuberculosis.
A further experiment relates to M. tuberculosis. It is filed as in vivo, BALB/c mice.
Experiment [12] concerns the target T2, LdtMab1. Nature of the experiment: Isothermal titration calorimetry, binding to LdtMab1. To be noted: ITC, 24° C., tris pH 8.0.
Where [13] appears, read: 10 μM LdtMt2, MES pH 6.5, 10° C.
The mark [14] stands for this setting: competition: equimolar mixture of doripenem, biapenem, faropenem and tebipenem, within one minute.
The mark [15] stands for this setting: equimolar mixture of amoxicillin, cephalothin, aztreonam and faropenem.

Structures are written as SMILES. Where two headings read alike, the source gives them in different places.

T4 sequence (O53638 32-251 limits assumed): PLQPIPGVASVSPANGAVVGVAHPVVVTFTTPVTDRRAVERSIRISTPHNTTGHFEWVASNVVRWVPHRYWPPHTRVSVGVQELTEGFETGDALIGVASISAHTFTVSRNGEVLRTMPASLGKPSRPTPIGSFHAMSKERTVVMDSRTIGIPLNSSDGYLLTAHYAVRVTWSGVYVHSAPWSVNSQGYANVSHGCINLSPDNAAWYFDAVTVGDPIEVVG
T3 sequence (I6Y9J2 56-408 limits assumed): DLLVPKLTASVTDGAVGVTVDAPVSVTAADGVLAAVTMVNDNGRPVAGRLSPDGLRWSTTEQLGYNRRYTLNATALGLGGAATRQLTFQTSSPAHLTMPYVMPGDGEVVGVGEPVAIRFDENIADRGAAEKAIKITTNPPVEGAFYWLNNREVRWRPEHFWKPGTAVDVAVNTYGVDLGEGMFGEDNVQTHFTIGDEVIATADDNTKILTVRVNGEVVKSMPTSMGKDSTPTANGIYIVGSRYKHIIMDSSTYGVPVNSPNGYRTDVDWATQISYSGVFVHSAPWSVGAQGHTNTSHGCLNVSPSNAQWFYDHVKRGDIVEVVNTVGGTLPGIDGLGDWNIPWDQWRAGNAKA
T1 sequence (I6Y9J2 56-408 limits assumed): as above
Chain of LdtMab2 (Mycobacteroides abscessus, UniProt B1MMQ4) (B1MMQ4 62-406 limits assumed): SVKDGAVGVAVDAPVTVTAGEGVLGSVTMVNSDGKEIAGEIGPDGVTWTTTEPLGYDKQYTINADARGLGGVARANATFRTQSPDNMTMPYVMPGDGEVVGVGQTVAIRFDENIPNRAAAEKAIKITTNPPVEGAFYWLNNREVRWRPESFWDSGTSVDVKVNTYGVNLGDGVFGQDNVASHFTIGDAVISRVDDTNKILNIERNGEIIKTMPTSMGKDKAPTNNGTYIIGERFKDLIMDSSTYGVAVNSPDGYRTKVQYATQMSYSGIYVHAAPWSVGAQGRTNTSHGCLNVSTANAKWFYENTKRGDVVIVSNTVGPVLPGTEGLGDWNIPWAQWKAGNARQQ
T2 sequence (B1MDC1 entry or part of it): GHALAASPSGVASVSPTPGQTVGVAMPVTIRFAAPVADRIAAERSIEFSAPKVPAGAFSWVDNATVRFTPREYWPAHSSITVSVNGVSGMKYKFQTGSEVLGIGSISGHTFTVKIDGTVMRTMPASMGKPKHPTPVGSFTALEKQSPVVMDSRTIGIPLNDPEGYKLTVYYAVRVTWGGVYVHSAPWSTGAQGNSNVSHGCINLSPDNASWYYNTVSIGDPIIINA
Chain of LdtMab1, wild-type (MAB_3165c, orthologue of LdtMt1) (B1MDC1 21-248): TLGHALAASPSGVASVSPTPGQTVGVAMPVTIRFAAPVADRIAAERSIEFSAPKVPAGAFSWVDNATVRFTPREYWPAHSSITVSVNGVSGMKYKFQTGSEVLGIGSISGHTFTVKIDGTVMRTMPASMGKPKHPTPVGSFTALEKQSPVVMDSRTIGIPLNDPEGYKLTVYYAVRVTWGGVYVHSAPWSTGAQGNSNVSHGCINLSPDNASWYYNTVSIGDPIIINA

The term Kd denotes the equilibrium constant for the complex coming apart. For the compound `CC1(C)S[C@@H]2[C@H](NC(=O)[C@H](N)c3ccc(O)cc3)C(=O)N2[C@H]1C(=O)O` [Amoxicillin], in experiment [1], the Kd stood at 1290 µM.

With `CC(=O)OCC1=C(C(=O)O)N2C(=O)[C@@H](NC(=O)Cc3cccs3)[C@H]2SC1` [Cephalothin], the figures for the Kd in experiment [2] and in experiment [1] were 200 µM and 30.3 µM, respectively.

`COC(=O)CSC1=C(C(=O)[O-])N2C(=O)[C@H]([C@@H](C)O)[C@H]2[C@H]1C.[Na+]` [T205, sodium (4R,5S,6S)-6-((R)-1-hydroxyethyl)-3-((2-methoxy-2-oxoethyl)thio)-4-methyl-7-oxo-1-azabicyclo[3.2.0]hept-2-ene-2 carboxylate] came in with a Kd in experiment [2] of 155 µM. Also, the “reaction and covalent adduct formation” value is “reacted and formed covalent adducts” on LdtMab1 [3]; “did not react” in the experiment on LdtMab2 [4]; “reacted and formed covalent adducts” in the experiment with LdtCl; “reacted and formed covalent adducts” in the experiment with LdtKp; “reacted and formed covalent adducts” in the experiment on LdtPa.

With `CCCOC(=O)CSC1=C(C(=O)O)N2C(=O)[C@H]([C@@H](C)O)[C@H]2[C@H]1C` [T206], the dissociation constant (Kd) in experiment [2] is 2.8 µM; at LdtMab2 [5] it was “low to sub μM range”; on LdtMt2 [6] (ITC), “low to sub μM range”. For the same compound, the “reaction and covalent adduct formation” value on LdtMab1 [3] is “reacted and formed covalent adducts”; with LdtMab2 [4] it was “did not react”; in the experiment on LdtCl, “reacted and formed covalent adducts”; in the experiment on LdtKp, “reacted and formed covalent adducts”; with LdtPa it was “did not react”.

Broadly, the kinact is the rate constant of inactivation at saturating inhibitor. As for `C[C@@H](O)[C@H]1C(=O)N2C(C(=O)O)=C(SCC(=O)OC3CCCCC3)[C@H](C)[C@H]12` [T208], the Kd is 5.65 µM in experiment [2], “low to sub μM range” at LdtMab2 [5] and “low to sub μM range” on LdtMt2 [6] (ITC). Moreover, the Kapp at LdtMt2 [7] (setting [13]) amounted to 4.8 ± 2.9 µM. Besides, at LdtMt2 [7] (10 μM LdtMt2, MES pH 6.5, 10° C., read-out: kinact (converted)), the kinact is 0.045 s⁻¹. The “reaction and covalent adduct formation” value on LdtMab1 [3] was “reacted and formed covalent adducts”; with LdtMab2 [4], “did not react”; in the experiment on LdtCl, “reacted and formed covalent adducts”; in the experiment with LdtKp, “reacted and formed covalent adducts”; with LdtPa, “reacted and formed covalent adducts”.

In turn, `CSC1=C(C(=O)O)N2C(=O)[C@H]([C@@H](C)O)[C@H]2[C@H]1C` [T210] returned a Kapp at LdtMt2 [7] (setting [13]) of 20.8 ± 3.3 µM. Besides, the “reaction and covalent adduct formation” value at LdtMab1 [3] was “reacted and formed covalent adducts”; in the experiment with LdtMab2 [4], “did not react”; in the experiment with LdtCl it was “reacted and formed covalent adducts”; in the experiment with LdtKp, “reacted and formed covalent adducts”; in the experiment on LdtPa it was “reacted and formed covalent adducts”. Besides, the Kd entry on LdtMab2 [5] is on record as “low to sub μM range”.

Take `C[C@@H](O)[C@H]1C(=O)N2C(C(=O)O)=C(SCC(F)(F)F)[C@H](C)[C@H]12` [T221]: the “minimum inhibitory concentration (MIC90) / growth inhibition” value in experiment [8] was “inhibit growth of all tested pathogens except P. aeruginosa”.

In the case of `C[C@@H](O)[C@H]1C(=O)N2C(C(=O)O)=C(SCc3ccccc3)[C@H](C)[C@H]12` [T222], the “minimum inhibitory concentration (MIC90) / growth inhibition” value in experiment [8] was “inhibit growth of all tested pathogens except P. aeruginosa”.

With `C[C@@H](O)[C@H]1C(=O)N2C(C(=O)O)=C(SCCc3ccccc3)[C@H](C)[C@H]12` [T223], the “minimum inhibitory concentration (MIC90) / growth inhibition” value in experiment [8] is “inhibit growth of all tested pathogens except P. aeruginosa”.

Consider `C[C@@H](O)[C@H]1C(=O)N2C(C(=O)O)=C(Sc3c[nH]c4ccccc34)[C@H](C)[C@H]12` [T224], for which the “minimum inhibitory concentration (MIC90) / growth inhibition” value in experiment [8] is “inhibit growth of all tested pathogens except P. aeruginosa”.

Turning to `CC1(C)S[C@@H]2[C@H](NC(=O)[C@H](N)c3ccc(O)cc3)C(=O)N2[C@H]1C(=O)O` [amoxicillin], the heat of association result on LdtMt1 [9] (ITC) and at LdtMt2 [6] (ITC) was “could not be detected” in each case.

In the case of `C[C@H]1[C@H](NC(=O)/C(=N\OC(C)(C)C(=O)O)c2csc(N)n2)C(=O)N1S(=O)(=O)O` [aztreonam], the heat of association result on LdtMt1 [9] (ITC) and on LdtMt2 [6] (ITC) was “could not be detected” in each case.

For the compound `CC(=O)OCC1=C(C(=O)O)N2C(=O)[C@@H](NC(=O)Cc3cccs3)[C@H]2SC1` [cephalothin], the heat of association entry on LdtMt1 [9] and on LdtMt2 [6] was “could not be detected” each time.

For `C[C@@H](O)[C@H]1C(=O)N2C(C(=O)O)=C(S[C@@H]3CN[C@H](CNS(N)(=O)=O)C3)[C@H](C)[C@H]12` [doripenem], at LdtMt2 [7] (pH 6.5), the Kapp stood at 32.6 ± 11.3 µM and the kinact was 0.122 s⁻¹. For the same compound, the kinact/KI on LdtMt2 [7] (read-out: kinact/Kapp ratio) is 3670 M⁻¹ s⁻¹. Besides, the “mass of stable adduct with wild-type LdtMt2” value at LdtMt2 [10] came out at 123 Da.

Take `C[C@@H](O)[C@H]1C(=O)N2C(C(=O)O)=C([C@H]3CCCO3)S[C@H]12` [faropenem]: the Kd amounted to 3.98 µM at LdtMt1 [9] (ITC, 24° C., tris pH 8.0, single binding modality); 6.25 µM on LdtMab2 [5] (read-out: Kd); 0.16 µM at LdtMab1 [12]. The Kapp on LdtMt2 [7] (setting [13]) came to 49.2 ± 11.9 µM. In addition, the “adducts detected in competition” value on LdtMab1 [3], in the experiment on LdtMab2 [4] (setting [15]), at LdtMt2 [10], in the experiment with LdtCl (setting [15]), in the experiment on LdtKp and on LdtMt1 [11] was “faropenem adducts gave the only masses we could detect” in each case. Besides, the “proteins reacted exclusively with the drug” value at LdtMab1 [3], in the experiment on LdtMab2 [4] (setting [14]), at LdtMt2 [10], in the experiment on LdtCl (setting [14]), with LdtKp and at LdtMt1 [11] was 100% each time. The “mass of stable adduct with wild-type LdtMt2” value on LdtMt2 [10] (UPLC-MS) is given as “+86 Da”. Further, the “mass of adduct with LdtMt1” value on LdtMt1 [11] (covalently attached to C226) was 86 Da. For the same compound, the “gross pathology of lungs (tuberculous lesions)” value in the experiment with M. tuberculosis (mouse, in vivo) was “developed tuberculous lesions in the lungs but their pathology and the bacterial burden were lower compared to untreated mice”. The “M. tuberculosis burden in the lungs” value in the experiment on M. tuberculosis (three weeks of treatment) is listed as “lower compared to untreated mice”. Also, the “survival / overall health of infected mice” value with M. tuberculosis (used alone) was “prolonged the life of mice”.

These data come from patent publication US10695322B2 (priority 2016, dated 2020).
